Measured values from PMC2915651 (2010).

Tests used:
[1] = system: [d(TGGGGT)]4 (DNA, G4) TGGGGT; assay: ITC; conditions: 70 mM KCl; 20 mM phosphate, 0.1 mM EDTA, pH 7.0, 25 °C; identical sites, n = 2.0
[2] = system: d(CGCGAATTCGCG)2 (DNA, duplex) CGCGAATTCGCG; assay: 1H NMR titration; conditions: 70 mM KCl; 10 mM phosphate, EDTA, pH 7.0, 25 °C; 1 mM DNA; shifts at most 0.03 ppm at 2:1
[3] = system: d(CGCGAATTCGCG)2 (DNA, duplex) CGCGAATTCGCG; assay: ITC; conditions: 70 mM KCl; 20 mM phosphate, 0.1 mM EDTA, pH 7.0, 25 °C; no resolvable isotherm; ligand 600–700 μM into 30 μM DNA
[4] = system: [d(TGGGGT)]4 (DNA, G4) TGGGGT; assay: 1H NMR titration; conditions: 70 mM KCl; 10 mM phosphate, EDTA, pH 7.0, 25 °C; 2 mM quadruplex; fast exchange

K b [1]	binding [2]	binding [3]	binding [4]	SMILES
1.2 ± 0.1 × 10^6 M^-1				Cn1cc(NC(=O)c2cc(NC(=O)CN=C(N)N)cn2C)cc1C(=O)NCCC(=N)N
1.9 ± 0.2 × 10^6 M^-1	weak	weak	yes	Cn1cc(NC(=O)c2cc(NC(=O)c3cc(N=CN)cn3C)cn2C)cc1C(=O)NCCC(=N)N
